# Legend:
# [1] = test system: Komatsuna; test: Komatsuna grown in alkaline soil, agent applied to the soil surface every 2 weeks (soil treatment), plant height and dry weight of shoots; assay type: in vivo, Komatsuna (Calvita); conditions: pH of soil 8.8, applied to surface of the soil 10 mL/pot every 2 weeks, 27 days after sowing
# Protocol: Calcium carbonate was added to field soil so as to adjust the Ca content to 5 mass %, and an appropriate amount of aqueous sodium carbonate solution was added thereto, followed by sufficiently mixing, to thereby provide alkaline soil (pH: 8.8). A chemical fertilizer (base fertilizer) was added to the alkaline soil in an amount of 10 kg/10 a (as reduced to N) Each of the pots (1/5000 a) was filled with the above soil, and 10 seeds of Komatsuna (Calvita, product of Nohara Seed Co., Ltd.) were sown in the soil, followed by cultivation in a greenhouse. Ten days after, five uniform seedlings per pot were selected by cutting. After cutting, an aqueous solution (0.05 mass %) of each agent having a composition shown in Table 9 was applied every 2 weeks to the surface of the soil in each pot (10 mL/pot), and the pot was controlled under ordinary conditions. Twenty-seven days after sowing, the soil was washed out with water, whereby the plants were harvested, and the plant height of each plant was measured. Subsequently, the plants were dried at 80° C. for 24 hours by a drier, and the dry weight of shoots of each plant was measured.
# The test procedure of Example 23 was repeated, except that application of sulfur to soil treatment and application of other agent ingredients to foliage treatment were simultaneously performed.
# The test procedure of Example 23 was repeated, except that the agent was changed.
# [2] = test system: Komatsuna; test: Komatsuna grown in alkaline soil, foliage spray of agent every 2 weeks, plant height and dry weight of shoots; assay type: in vivo, Komatsuna (Calvita); conditions: pH of soil 8.8, foliage spray 5 mL/pot every 2 weeks, 27 days after sowing, averaged
# Protocol: Calcium carbonate was added to field soil so as to adjust the Ca content to 5 mass %, and an appropriate amount of aqueous sodium carbonate solution was added thereto, followed by sufficiently mixing, to thereby provide alkaline soil (pH: 8.8). A chemical fertilizer (base fertilizer) was added to the alkaline soil in an amount of 10 kg/10 a (as reduced to N). Each of the pots (1/5000 a) was filled with the above soil, and 10 seeds of Komatsuna (Calvita, product of Nohara Seed Co., Ltd.) were sown in the soil, followed by cultivation in a greenhouse. Ten days after, five uniform seedlings per pot were selected by cutting. After cutting, an aqueous solution (0.05 mass %) of each agent having a composition shown in Table 2 was sprayed every 2 weeks to the stems and leaves of the plants in each pot (5 mL/pot), and the pot was controlled under ordinary conditions. Twenty-seven days after sowing, the soil was washed out with water, whereby the plants were harvested. The plant height of each plant was measured. Subsequently, the plants were dried at 80° C. for 24 hours by a drier, and the dry weight of shoots of each plant was measured.
# The test procedure of Example 7 was repeated, except that the amounts of ingredients were changed. […]
# The test procedure of Example 7 was repeated, except that the agent was changed. […]
# [3] = test system: sunflower; test: Sunflower grown in alkaline soil, foliage spray of agent every 2 weeks, plant height and dry weight of shoots; assay type: in vivo, sunflower (Pachino-gold); conditions: pH of soil 8.8, foliage spray 5 mL/pot every 2 weeks, sown June 13, measured August 10
# Protocol: Culture soil (sowing mold, product of Takii Seed Co., Ltd.; 440 mg-N/L, 390 mg-P/L, and 410 mg-K/L) and plug soil for turf were mixed at 1:1, and calcium carbonate was added to the soil mixture to a Ca concentration of 5 mass %. An appropriate amount of aqueous sodium carbonate solution was added thereto, followed by sufficiently mixing, to thereby provide alkaline soil (pH: 8.8). Each of the No. 6-pots (surface area: 177 cm^2) was filled with the above-prepared soil, and on the day of June 13, 4 seeds of sunflower (Pachino-gold, product of Takii Seed Co., Ltd.) were sown in the soil, followed by cultivation in a greenhouse. Fourteen days after, two uniform seedlings per pot were selected by cutting. After cutting, an aqueous solution (0.05 mass %) of each agent having a composition shown in Table 7 was sprayed every 2 weeks to the stems and leaves of the plants in each pot (5 mL/pot), and the pot was controlled under ordinary conditions. On the day of August 10, the plant height and the dry weight of shoots of each plant were measured.
# The test procedure of Example 19 was repeated, except that application of sulfur to soil treatment and application of other agent ingredients to foliage treatment were simultaneously performed.
# The test procedure of Example 19 was repeated, except that the agent was changed.
# [4] = test system: plants grown in alkaline soil; conditions: spraying, Non-Patent Document 1; cited from earlier work
# [5] = test system: Komatsuna; test: Komatsuna pot test: foliage application of agent, then sub-irrigation with pH 9.0 sodium carbonate/sodium hydrogencarbonate buffer, fresh weight of shoots; assay type: in vivo, Komatsuna (species: Calvita); conditions: 0.05 wt. % aqueous solution of agent on stems and leaves, 5 mL/pot, pH 9.0 buffer sub-irrigation three days after treatment, measured one week after irrigation
# Protocol: Each of the pots (1/5000 a) was filled with andosols soil, and Komatsuna (species: Calvita, product of Nohara Seed Co., Ltd.) was sown in the soil. At the 3 leaf stage, five uniform seedlings per pot were selected by cutting. An aqueous solution (0.05 wt. %) of each agent having a composition shown in Table 1 was applied to the stems and leaves of the plants in each pot (5 mL/pot). Sulfur powder (“sulfur, powder,” product of Wako Pure Chemical Industries, Ltd.) was separately used in an amount given in Table 1 for soil treatment. The same sulfur powder was employed in the following Examples. Three days after the treatment, sub-irrigation was performed with a 0.5-mol/L aqueous sodium carbonate/sodium hydrogencarbonate buffer (pH: 9.0). One week after irrigation, the fresh weight of shoots of the plants was measured so as to check the growth conditions.
# In Comparative Example 1, water was employed instead of an aqueous solution of each agent.
# [6] = test system: cotton; test: Cotton grown in alkaline soil, foliage spray of agent every 2 weeks, plant height and dry weight of shoots; assay type: in vivo, cotton (species: Dwarf cotton); conditions: pH of soil 8.8, foliage spray 5 mL/pot every 2 weeks, sown Sep. 22, harvested November 7
# Protocol: Calcium carbonate was added to field soil so as to adjust the Ca content to 5 mass %, and an appropriate amount of aqueous sodium carbonate solution was added thereto, followed by sufficiently mixing, to thereby provide alkaline soil (pH: 8.8). A chemical fertilizer (base fertilizer) was added to the alkaline soil in an amount of 10 kg/10 a (as reduced to N). Each of the pots (1/5000 a) was filled with the above soil, and 6 seeds of cotton (species: Dwarf cotton, product of Sakata Seed Co.) were sown in the soil on Sep. 22, followed by cultivation in a greenhouse. Ten days after, three uniform seedlings per pot were selected by cutting. After cutting, an aqueous solution (0.05 mass %) of each agent having a composition shown in Table 4 was sprayed every 2 weeks to the stems and leaves of the plants in each pot (5 mL/pot), and the pot was controlled under ordinary conditions. On the day of November 7, the soil was washed out with water, whereby the plants were harvested, and the plant height of each plant was measured. Subsequently, the plants were dried at 80° C. for 24 hours by a drier, and the dry weight of shoots of each plant was measured.
# The test procedure of Example 13 was repeated, except that sulfur was further applied to soil treatment one day after foliage treatment with other agent ingredients.
# The test procedure of Example 13 was repeated, except that the agent was changed. […]
# [7] = test system: corn; test: Corn grown in alkaline soil, foliage spray of agent every 2 weeks, plant height and dry weight of shoots; assay type: in vivo, corn (species: Amai bantam 90); conditions: pH of soil 8.7, foliage spray 5 mL/pot every 2 weeks, sown November 15, harvested December 26
# Protocol: Calcium carbonate was added to field soil so as to adjust the Ca content to 5 mass %, and an appropriate amount of aqueous sodium carbonate solution was added thereto, followed by sufficiently mixing, to thereby provide alkaline soil (pH: 8.7). A chemical fertilizer (base fertilizer) was added to the alkaline soil in an amount of 10 kg/10 a (as reduced to N). Each of the pots (1/5000 a) was filled with the above soil, and 4 seeds of corn (species: Amai bantam 90, product of Tohoku Seed Co., Ltd.) were sown in the soil on November 15, followed by cultivation in a greenhouse. Twelve days after, two uniform seedlings per pot were selected by cutting. After cutting, an aqueous solution (0.05 mass %) of each agent having a composition shown in Table 6 was sprayed every 2 weeks to the stems and leaves of the plants in each pot (5 mL/pot), and the pot was controlled under ordinary conditions. On the day of December 26, the soil was washed out with water, whereby the plants were harvested, and the plant height of each plant was measured. Subsequently, the plants were dried at 80° C. for 24 hours by a drier, and the dry weight of shoots of each plant was measured.
# The test procedure of Example 17 was repeated, except that application of sulfur to soil treatment and application of other agent ingredients to foliage treatment were simultaneously performed. […]
# [8] = test system: tomato; test: Tomato seedlings transplanted to alkaline soil, foliage spray of agent every 2 weeks, dry weight of shoots; assay type: in vivo, tomato (Kyoryoku Beijyu); conditions: pH of soil 8.8, foliage spray 5 mL/pot every 2 weeks, transplanted June 6, harvested July 6
# Protocol: Calcium carbonate was added to field soil so as to adjust the Ca content to 5 mass %, and an appropriate amount of aqueous sodium carbonate solution was added thereto, followed by sufficiently mixing, to thereby provide alkaline soil (pH: 8.8). A chemical fertilizer (base fertilizer) was added to the alkaline soil in an amount of 10 kg/10 a (as reduced to N). Each of the pots (1/5000 a) was filled with the above soil, and on the day of June 6, tomato seedlings (Kyoryoku Beijyu, product of Nohara Seed Co., Ltd.) were transplanted to the soil, followed by cultivation in a greenhouse. After transplanting, an aqueous solution (0.05 mass %) of each agent having a composition shown in Table 8 was sprayed every 2 weeks to the stems and leaves of the plants in each pot (5 mL/pot), and the pot was controlled under ordinary conditions. On the day of July 6, the soil was washed out with water, whereby the plants were harvested. Subsequently, the plants were dried at 80° C. for 24 hours by a drier, and the dry weight of shoots of each plant was measured.
# The test procedure of Example 21 was repeated, except that application of sulfur to soil treatment and application of other agent ingredients to foliage treatment were simultaneously performed.
# The test procedure of Example 21 was repeated, except that the agent was changed.
compound,measurement,setting,value
"Cl.NCC(=O)CCC(=O)O [compound 23, 5-Aminolevulinic acid hydrochloride]",Dry weight of shoots,[1],2.1 g
same,Plant height (cm),[1],10.3 cm
"O=C([O-])CN(CCN(CC(=O)[O-])CC(=O)[O-])CCN(CC(=O)[O-])CC(=O)[O-].[Fe+3].[NH4+].[NH4+] [compound 6, Ammonium diethylenetriaminepentaacetatoferrate]",Dry weight of shoots,[2],2.0 g
same,Plant height (cm),[2],9.8 cm
"Cl.NCC(=O)CCC(=O)O [compound 17, 5-Aminolevulinic acid hydrochloride]",Dry weight of shoots,[3],6.8 g
same,Plant height (cm),[3],36 cm
NCC(=O)CCC(=O)O [5-aminolevulinic acid],Foliage yield of plants,[4],prevent decrease in foliage yield
"Cl.NCC(=O)CCC(=O)O [compound 2, 5-Aminolevulinic acid hydrochloride]","Fresh weight of shoots (%)(5 plants in total, relative to treatment period)",[5],55%
"Cl.NCC(=O)CCC(=O)O [compound 5, 5-Aminolevulinic acid hydrochloride]",Dry weight of shoots,[2],2.2 g
same,Plant height (cm),[2],11.3 cm
"Cl.NCC(=O)CCC(=O)O [compound 10, 5-Aminolevulinic acid hydrochloride]",Dry weight of shoots,[6],0.9 g
same,Plant height (cm),[6],13.1 cm
"O=C([O-])CN(CCN(CC(=O)[O-])CC(=O)[O-])CCN(CC(=O)[O-])CC(=O)[O-].[Fe+3].[NH4+].[NH4+] [compound 24, Ammonium diethylenetriaminepentaacetatoferrate]",Dry weight of shoots,[1],1.9 g
same,Plant height (cm),[1],10.1 cm
"Cl.NCC(=O)CCC(=O)O [compound 14, 5-Aminolevulinic acid hydrochloride]",Dry weight of shoots,[7],0.30 g
same,Plant height (cm),[7],23.2 cm
"Cl.NCC(=O)CCC(=O)O [compound 20, 5-Aminolevulinic acid hydrochloride]",Dry weight of shoots,[8],4.5 g
